The results in this text go back to patent publication US20220117913A1, “DEZOCINE DERIVATIVE AND MEDICAL USE THEREOF” (YANGTZE RIVER PHARMACEUTICAL GROUP CO., LTD., priority 2019, published 2022).

pIC50: −log10 of the molar value. Counter-ions that a name gives are not always drawn. Like-named read-outs stand apart in the source and are kept apart here.

One series has as its target κ opioid receptor (Homo sapiens, UniProt P41145). Kind of series: radioisotope ligand competitive binding assay, κ opioid receptor (KOR). Conditions: [3H]Diprenorphine 0.3 nM, cell membrane of stably transfected cells; read-out: κ IC50. The text has this:
(§1) Through the radioisotope ligand competitive binding assay, IC50 of the compound was used as an indicator to evaluate the affinity of the compound to κ and δ opioid receptors.
(§2) (1) Reagents • The cell membrane was extracted from stably transfected cells constructed by WuXi AppTec, Shanghai. • 3H-diprenophrine (PerkinElmer, Cat: NET1121250UC, Lot: 2143599) • 3H-DAMGO (PerkinElmer, Cat: NET902250UC, Lot: 2139100) • 3H-DADLE (PerkinElmer, Cat: NET648250UC, Lot: 2060549) • Tris base (Sigma, Cat: T6066-1KG), prepare 1M stock and adjust pH to 7.4. • 0.5M EDTA (Invitrogen, Cat: 15575-038) • 1M MgCl2 (Sigma, Cat: M1028-100 ml) • PEI (Poly ethyleneimine) (Sigma, Cat: P3143) • Microscint 20 cocktail (PerkinElmer, Cat: 6013329) • Naltrindole (Sigma, Cat; N115) • (±)trans-U-50488 (Sigma, Cat: D8040) • DAMGO (Sigma, Cat: E7384)
(§3) (1) 1 μL of the test compounds, negative control (i.e., DMSO) and positive control (i.e., non-specific binding well compound), after being prepared, were respectively transferred to a 96-well plate;
(§4) (2) 99 μL of the prepared opioid receptor membrane protein was added to each well of the 96-well plate containing 1 μL of the compound;
(§5) (3) 100 μL of 2× corresponding radioisotope ligand was added to each well;
(§6) (4) The plate was placed on a shake and incubated at room temperature for 1 hour;
(§7) (5) Each well of the GF/C plate was soaked with 50 μL of 0.3% PEI for at least half an hour in advance;
(§8) (6) After the incubation was finished, the GF/C plate was washed with plate washing buffer once by using Harvest. Then, the cell membranes in the 96-well plate were collected onto the GF/C plate using Harvest, and the GF/C plate was washed four times with the plate washing buffer, each time about 250 μL;
(§9) (7) The GF/C plate was placed in an oven at 50° C. for 1 hour;
(§10) (8) The bottom of the GF/C plate was sealed with a plate sealing film, 50 μL of Microscint-20 scintillation fluid was added to each well, and then the plate was sealed with a transparent sealing film for microplate;
(§11) (9) The radioactive signal value CPM was read using MicroBeta2;
(§12) (10) The data was analyzed with Prism 5. The percentage inhibition rate was calculated with the calculation formula: % Inh=(1-Background subtracted Assay value/Background subtracted HC value)*100.

The target in another series is δ opioid receptor (Homo sapiens, UniProt P41143). Kind of series: radioisotope ligand competitive binding assay, δ opioid receptor (DOR). The settings on record: [3H]-DADLE 0.5 nM, cell membrane of stably transfected cells; read-out: δ IC50.
From the text: as §1, §2, §3, §4, §5, §6, §7, §8, §9, §10, §11, §12

In series [1] the test system is pain induced by heat radiation in mice. As to the kind of experiment: pain induced by heat radiation in mice (light and heat-induced pain). The format is in vivo. Conditions: for ED50: Mus musculus; for analgesic effect (comparison in words): four mouse models of pain (heat radiation and hot plate), versus dezocine. The text has this: (§13) A mode of pain induced by heat radiation in mice and a mode of pain induced by hot plate in mice were used to evaluate the analgesic intensity of the test compounds.

For the next series, the target named is μ opioid receptor (Homo sapiens, UniProt P35372). Kind of series: radioisotope ligand competitive binding assay, μ opioid receptor (MOR). Conditions: [3H]DAMGO 0.5 nM, cell membrane of stably transfected cells; read-out: μ IC50.
Series [2] can be described thus: pharmacokinetic investigation of intravenous administration in mice. The format is in vivo. Conditions: mouse; male mice, intravenous injection, plasma. The procedure:
Male mice were injected intravenously with the compound of the present disclosure, and the concentration of the unchanged compound in plasma and the concentration of the metabolite of dezocine hydrochloride were measured after the administration.

Series [3] concerns pain induced by hot plate in mice. Kind of series: pain induced by hot plate in mice. The settings on record: Mus musculus; male mice. The format is in vivo.
From the text: as §13

[4] abbreviates: female mice, read-out: Light and heat-induced pain ED50 Female.
Where [5] appears, read: male mice, read-out: Light and heat-induced pain ED50 Male.

Take `CCCCCN[C@H]1[C@H]2CCCCC[C@]1(C)c1cc(O)ccc1C2` [Hydrochloride of compound 22]: the pIC50 (usually the IC50 on a negative log10 scale, so that one unit is a factor of ten) at κ opioid receptor is 7.00 to 8.00; on δ opioid receptor, 7.00 to 8.00; at μ opioid receptor, more than 8.00. Also, the ED50 – broadly, the dose that gives a 50% effect, or the effect in half of the subjects – in series [1] (setting [4]) worked out at 0.18 mg/kg; in series [1] (setting [5]) it was 0.13 mg/kg; in series [3] it was 0.3 mg/kg. The “Light and heat-induced pain ED95 Female” value in series [1] (female mice) was 0.26 mg/kg. Also, the “analgesic effect (comparison in words)” value in series [1] was “stronger than dezocine”. Also, the “Light and heat-induced pain ED95 Male” value in series [1] (male mice) amounted to 0.26 mg/kg. Moreover, in series [2], the half-life (as a rule, the time needed for the level to fall by half in the phase considered) is 1.24 h.

With `CCCCN[C@H]1[C@H]2CCCCC[C@]1(C)c1cc(O)ccc1C2` [Hydrochloride of compound 21], the pIC50 on κ opioid receptor was 7.00 to 8.00; at δ opioid receptor, 7.00 to 8.00; at μ opioid receptor, more than 8.00. In addition, the ED50 in series [1] (setting [4]) stood at 0.068 mg/kg; in series [1] (setting [5]), 0.12 mg/kg; in series [3], 0.15 mg/kg. The “Light and heat-induced pain ED95 Female” value in series [1] (female mice) was 0.083 mg/kg. For the same compound, the “Light and heat-induced pain ED95 Male” value in series [1] (male mice) is given as 0.18 mg/kg. Further, the half-life in series [2] is 1.27 h.

Regarding `C[C@@]12CCCCC[C@@H](Cc3ccc(O)cc31)[C@@H]2NCc1ccccc1` [Hydrochloride of compound 26], the pIC50 at κ opioid receptor, on δ opioid receptor and at μ opioid receptor was more than 8.00 each time. Further, the ED50 amounted to 0.025 mg/kg in series [1] (setting [4]), 0.017 mg/kg in series [1] (setting [5]) and 0.045 mg/kg in series [3]. Besides, the “Light and heat-induced pain ED95 Female” value in series [1] (female mice) is 0.043 mg/kg. Besides, in series [1], the “analgesic effect (comparison in words)” value is given as “strongest analgesic effect”. The “Light and heat-induced pain ED95 Male” value in series [1] (male mice) is recorded as 0.021 mg/kg. In series [2], this compound had a half-life of 1.35 h.

Regarding `C[C@@]12CCCCC[C@@H](Cc3ccc(O)cc31)[C@@H]2N` (relative stereo) [dezocine hydrochloride, (−)-[5R-(5a,11a,13S*)]-13-amino-5,6,7,8,9,10,11,12-octahydro-5-methyl-5,11-methylene benzocyclodecen-3-ol, reference compound], the half-life in series [2] is 0.903 h.

`C[C@@]12CCCCC[C@@H](Cc3ccc(O)cc31)[C@@H]2NCCc1ccccc1` [Hydrochloride of compound 25]: the pIC50 at κ opioid receptor was 6.00 to 7.00; on δ opioid receptor it was 6.00 to 7.00; at μ opioid receptor, more than 8.00. Besides, the ED50 in series [1] (setting [4]) turned out to be 1.15 mg/kg; in series [1] (setting [5]), 0.74 mg/kg. Also, the “Light and heat-induced pain ED95 Female” value in series [1] (female mice) was 2.88 mg/kg. Also, in series [1] (male mice), the “Light and heat-induced pain ED95 Male” value is given as 1.18 mg/kg. Besides, in series [2], the half-life was 1.65 h.

For `C[C@@]12CCCCC[C@@H](Cc3ccc(O)cc31)[C@@H]2N1CCCC1` [Hydrochloride of compound 29], the pIC50 was 5.00 to 6.00 at κ opioid receptor, 5.00 to 6.00 on δ opioid receptor and 7.00 to 8.00 at μ opioid receptor.
